The values below come from publication PMC12217481, “Structure and mechanism of taniborbactam inhibition of the cefepime-hydrolyzing, partial R2-loop deletion Pseudomonas-derived cephalosporinase variant PDC-88” (Antimicrobial Agents and Chemotherapy, 2025).

In brackets after ≈: the same amount, converted by molar mass. Where two headings read alike, the source gives them in different places.

The subject of assay [1] is E. coli DH10B/pTU625 (PDC-88). The assay is described as follows: Broth microdilution MIC, isogenic E. coli expressing PDC-88. It is filed as cell-based, Escherichia coli. Conditions: for MIC: Escherichia coli. The method, then: (§1) Genetic constructs used for minimum inhibitory concentration (MIC) testing were designed by Venatorx Pharmaceuticals and codon-optimized for use in E. coli and synthesized by Twist Bioscience as described previously ([9]). […] DH10B cells expressing an empty pET24a(+) vector (Novagen) were also grown, and the plasmid purified. Both pCR4-TOPO-PDC-88 and empty pET24a(+) were cut with BamHI and NdeI, the digests run on low-melting point agarose gels, and the bands of interest excised and ligated to yield a PDC-88 expressing pET24a(+) construct with the His tag removed. The PDC-3 expression construct was created in a similar manner but starting with a previously described pBC SK(−) vector ([42]). The final plasmids were grown in E. coli DH10B cells and purified.
(§2) Modal broth microdilution MICs (or median broth microdilution MICs where appropriate) were determined in accordance with Clinical and Laboratory Standards Institute (CLSI) M07 guidelines ([43]). Isogenic E. coli DH10B cells expressing the abovementioned plasmid-encoded PDC constructs were used. […] CLSI quality control strains Escherichia coli NCTC 13353, E. coli ATCC 35218, and Klebsiella pneumoniae ATCC 700603 were used during testing ([24]).

Assay [2] concerns E. coli DH10B/pTU606 (PDC-1). Kind of assay: Broth microdilution MIC, isogenic E. coli expressing PDC-1. It is filed as cell-based. Particulars: Escherichia coli. The method, then: as §1, §2
(In broth dilution the organism is exposed to a series of concentrations in liquid medium.)

The target of a further assay is T1, PDC-3 (Pseudomonas aeruginosa, UniProt P24735, T105A).
T1 construct: The PDC-3 expression construct was created in a similar manner but starting with a previously described pBC SK(−) vector; made in house; host or cells: E. coli BL21-CodonPlus (DE3)-RP, pET24a(+)
T1 sequence (P24735 27-397 T105A): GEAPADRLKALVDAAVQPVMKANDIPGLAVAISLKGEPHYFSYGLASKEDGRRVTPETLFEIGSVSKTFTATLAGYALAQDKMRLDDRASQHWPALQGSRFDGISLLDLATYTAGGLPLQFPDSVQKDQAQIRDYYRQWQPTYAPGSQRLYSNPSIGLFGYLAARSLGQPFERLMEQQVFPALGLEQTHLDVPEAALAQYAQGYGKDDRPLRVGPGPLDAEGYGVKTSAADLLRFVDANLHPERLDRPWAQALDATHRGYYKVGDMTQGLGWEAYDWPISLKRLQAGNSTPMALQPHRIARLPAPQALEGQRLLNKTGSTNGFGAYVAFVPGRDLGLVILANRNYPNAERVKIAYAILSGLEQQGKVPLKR
Kind of assay: Timed ESI-MS of acyl-enzyme formation, PDC-3. Format: biochemical. Conditions: timed ESI-MS, 1 to 30 min (ATM to 60 min). The method, then:
Timed ESI-MS experiments allow tracking of the reaction over time and determination of product modification, enabling the elucidation of mechanistic detail. Time courses were collected for both PDC-3 and PDC-88 with FEP (Fig. 4), CAZ (Fig. S1), TOL (Fig. S2), and ATM (Fig. S3). Substrate modification (here, loss of the R2 group) was determined based on differences between masses of apo and acyl-enzyme peaks (Fig. S4). […] Based on the differences in mass between the apo enzyme peaks, the acyl-enzyme peaks, and the molecular masses of each substrate, the mass of the adducts was determined and used to predict any portion of the substrate molecule that might be lost during the reaction (Fig. S4). As expected ([26][–][28]), all three cephalosporin antibiotics (FEP, CAZ, and TOL) lost their R2 groups during the reaction, while ATM (the sole monobactam) maintained its initial mass.
Five micrograms of PDC-3 or PDC-88 was incubated at the indicated molar ratio (1:2 to 1:100 PDC:β-lactam) in a total volume of 20 µL in 1× PBS at pH 7.4 at room temperature for the duration of the indicated time points. Reactions were quenched with the addition of 10 µL acetonitrile and added to 1 mL of 0.1% formic acid in water.
Data were collected using a Waters Synapt G2-Si quadrupole time-of-flight (Q-TOF) mass spectrometer and Waters Acquity UPLC BEH C18 1.7 µm column (2.1 by 100 mm). MassLynx V4.1 was used to deconvolute protein peaks. The tune settings for each sample were as follows: capillary voltage of 3.5 kV, sampling cone voltage of 35 V, source offset of 35 V, source temperature of 100°C, desolvation temperature of 500°C, cone gas flow rate of 100 L/h, desolvation gas flow rate of 800 L/h, and nebulizer bar at 6.0. Mobile phase A was 0.1% formic acid in water. Mobile phase B was 0.1% formic acid in acetonitrile. The mass accuracy of this system is ±5 Da.

Assay [3] has as its system E. coli DH10B/pTU628 (PDC-91). Kind of assay: Broth microdilution MIC, isogenic E. coli expressing PDC-91. Format: cell-based. Particulars: Escherichia coli. The method, then: as §1, §2
In the next assay the test system is P. aeruginosa isolates. Conditions: 200 well-characterized P. aeruginosa isolates; cited from earlier work.
For assay [4], the system named is E. coli DH10B/pTU626 (PDC-89). Kind of assay: Broth microdilution MIC, isogenic E. coli expressing PDC-89. Conditions: Escherichia coli. It is filed as cell-based. The method, then: as §1, §2
Assay [5] has as its system E. coli DH10B/pTU609 (PDC-3). Kind of assay: Broth microdilution MIC, isogenic E. coli expressing PDC-3. Conditions: Escherichia coli. It is filed as cell-based. The method, then:
as §1, §2

One may read the MIC as the least concentration at which growth counts as inhibited. As to `CO/N=C(\C(=O)N[C@@H]1C(=O)N2C(C(=O)[O-])=C(C[N+]3(C)CCCC3)CS[C@H]12)c1csc(N)n1` [FEP, cefepime], the MIC in assay [1] (read-out: MIC FEP AVI) was determined as 0.25 µg/mL (≈ 0.52 µM); in assay [1] (read-out: MIC FEP TZB), 16 µg/mL (≈ 33.3 µM); in assay [1] (E. coli DH10B/pTU625 (PDC-88), FEP with TAN at constant 4 µg/mL, read-out: MIC FEP TAN), 0.25 µg/mL (≈ 0.52 µM); in assay [1] (E. coli DH10B/pTU625 (PDC-88), read-out: MIC FEP Alone) it was 32 µg/mL (≈ 66.6 µM); in assay [2] (read-out: MIC FEP TZB) it was 2 µg/mL (≈ 4.16 µM); in assay [2] (E. coli DH10B/pTU606 (PDC-1), read-out: MIC FEP Alone) it was 2 µg/mL (≈ 4.16 µM). The MIC amounted to 0.5 µg/mL (≈ 1.04 µM) in assay [3] (read-out: MIC FEP AVI); 32 µg/mL (≈ 66.6 µM) in assay [3] (read-out: MIC FEP TZB); 0.5 µg/mL (≈ 1.04 µM) in assay [3] (E. coli DH10B/pTU628 (PDC-91), FEP with TAN at constant 4 µg/mL, read-out: MIC FEP TAN); 32 µg/mL (≈ 66.6 µM) in assay [3] (E. coli DH10B/pTU628 (PDC-91), read-out: MIC FEP Alone); 0.25 µg/mL (≈ 0.52 µM) in assay [4] (read-out: MIC FEP AVI); 16 µg/mL (≈ 33.3 µM) in assay [4] (read-out: MIC FEP TZB). For the same compound, the MIC in assay [4] (E. coli DH10B/pTU626 (PDC-89), FEP with TAN at constant 4 µg/mL, read-out: MIC FEP TAN) is 0.25 µg/mL (≈ 0.52 µM); in assay [4] (E. coli DH10B/pTU626 (PDC-89), read-out: MIC FEP Alone), 32 µg/mL (≈ 66.6 µM); in assay [5] (read-out: MIC FEP AVI), 0.25 µg/mL (≈ 0.52 µM); in assay [5] (read-out: MIC FEP TZB), 2 µg/mL (≈ 4.16 µM); in assay [5] (E. coli DH10B/pTU609 (PDC-3), FEP with TAN at constant 4 µg/mL, read-out: MIC FEP TAN) it was 0.25 µg/mL (≈ 0.52 µM); in assay [5] (E. coli DH10B/pTU609 (PDC-3), read-out: MIC FEP Alone), 2 µg/mL (≈ 4.16 µM). Besides, the “increase of cefepime MIC, PDC-88 compared to PDC-3” value in assay [1] ({}) was found to be 16 fold. Also, at PDC-3, the “acyl-enzyme complex formation and deacylation” value is reported as “did not form an acyl-enzyme complex”. Also, the susceptibility of isolates with P. aeruginosa isolates is listed as 1.5%.
